Like-named read-outs stand apart in the source and are kept apart here.
Columns and labels:
LmxCLK1 = molecular target: T1, LmxCLK1 (Leishmania mexicana, UniProt E9AMP2); assay: biochemical; type: binding
T1 sequence (E9AMP2 1-422): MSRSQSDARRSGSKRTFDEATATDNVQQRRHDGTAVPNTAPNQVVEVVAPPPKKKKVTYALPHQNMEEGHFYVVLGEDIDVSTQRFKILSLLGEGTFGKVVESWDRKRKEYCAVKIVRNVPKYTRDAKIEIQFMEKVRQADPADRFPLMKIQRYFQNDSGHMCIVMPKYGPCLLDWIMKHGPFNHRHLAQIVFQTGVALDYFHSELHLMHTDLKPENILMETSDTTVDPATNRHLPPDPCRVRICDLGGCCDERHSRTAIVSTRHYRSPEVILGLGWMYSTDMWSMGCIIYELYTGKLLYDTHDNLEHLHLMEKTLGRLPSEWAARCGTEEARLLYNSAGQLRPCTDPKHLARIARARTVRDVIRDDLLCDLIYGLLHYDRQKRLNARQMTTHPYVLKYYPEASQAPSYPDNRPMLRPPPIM

NLuc::LmxCLK1 = NLuc::LmxCLK1 (Leishmania mexicana, UniProt E9AMP2); assay: cell-based; type: cell-based; conditions: for Target occupancy Run 1 / Target occupancy Run 2 / Target occupancy Average: 10 µM compound, tracer SV366, promastigotes; for Target occupancy Average: mean of two experiments
In short: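 NanoBRET tracer displacement in live cells expressing NLuc-tagged CLK1, test compounds at 10 µM fixed, 1% DMSO final. Acceptor/donor emission (610/460 nm) ratio gives mBRET, converted to blank-corrected probe occupancy (%); probe KD from single-site saturation binding fits.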

[1] = DSF, 10 µM compound, 2 µM LmxCLK1, Run 1, read-out: ΔTm Run 1
[2] = DSF, 10 µM compound, 2 µM LmxCLK1, Run 2, read-out: ΔTm Run 2
[3] = DSF, 10 µM compound, 2 µM LmxCLK1, mean of two runs, read-out: ΔTm Average
[4] = read-out: Target occupancy Average
[5] = read-out: Target occupancy Run 1
[6] = read-out: Target occupancy Run 2
[7] = DSF, 10 µM compound, 2 µM LmxCLK1, Run 1
[8] = DSF, 10 µM compound, 2 µM LmxCLK1, Run 2
[9] = DSF, 10 µM compound, 2 µM LmxCLK1, mean of two runs

Molecule | ΔTm Average (LmxCLK1) | ΔTm Run 1 (LmxCLK1) | ΔTm Run 2 (LmxCLK1) | Target occupancy Run 1 (NLuc::LmxCLK1) [%] | Target occupancy Run 2 (NLuc::LmxCLK1) [%] | Target occupancy Average (NLuc::LmxCLK1) [%] | ΔTm at 10 µM (LmxCLK1; [1]) [°C] | ΔTm at 10 µM (LmxCLK1; [2]) [°C] | ΔTm at 10 µM (LmxCLK1; [3]) [°C] | receptor occupancy at 10 µM (NLuc::LmxCLK1; [4]) [%] | receptor occupancy at 10 µM (NLuc::LmxCLK1; [5]) [%] | receptor occupancy at 10 µM (NLuc::LmxCLK1; [6]) [%] | ΔTm Run 1 (LmxCLK1; [7]) [°C] | ΔTm Run 2 (LmxCLK1; [8]) [°C] | ΔTm Average (LmxCLK1; [9]) [°C]
CNc1nc(Nc2cnn([C@H]3CCN(C4COC4)C[C@@H]3F)c2Cl)ncc1C(F)(F)F [GNE-9605] | -0.4 | -0.2 | -0.5 | 3.1 | -5.2 | -1.1 |  |  |  |  |  |  |  |  | 
Cc1ccccc1CN1C(=O)C2=C(CCN(Cc3ccccc3)C2)N2CCN=C12 [TIC10] | 0.2 °C | 0.2 °C | 0.2 °C | 4.1 | -6.1 | -1.0 |  |  |  |  |  |  |  |  | 
O=C(/C=C/c1ccc(O)c(O)c1)c1ccc(O)cc1O [Butein] |  |  |  |  |  |  | 0 | 0.4 | 0.2 | -10.8 | 3.3 | -25 |  |  | 
C[C@H]1[C@H](C)CC[C@]2(C(=O)O)CC[C@]3(C)C(=CC[C@@H]4[C@@]5(C)C[C@@H](O)[C@H](O)[C@@](C)(CO)[C@@H]5CC[C@]43C)[C@H]12 [Asiatic Acid] |  |  |  |  |  |  | 0.2 | 0.1 | 0.2 | -4.4 | 8.6 | -17.4 |  |  | 
C=CC(=O)Nc1cccc(Nc2nc(Nc3ccc(Oc4ccnc(C(=O)NC)c4)cc3)ncc2F)c1 [CNX-774] |  |  |  | -4.4 | -9.3 | -6.8 |  |  |  |  |  |  | -0.3 | 0.0 | -0.2
O=C(c1ccc(Nc2nccc(-c3cc4ccccc4s3)n2)cc1)N1CCC(N2CCCC2)CC1 [IKK-16 (IKK Inhibitor VII)] |  |  |  | 10.2 | -10.2 | 0.0 |  |  |  |  |  |  | 1.9 | 1.6 | 1.8
C=CC(=O)Nc1ccc2ncnc(Nc3ccc(OCc4cccc(F)c4)c(Cl)c3)c2c1 [AST-1306] |  |  |  |  |  |  | -0.1 | -0.4 | -0.2 | -9.2 | -7.7 | -10.7 |  |  | 
COc1cccc2cc(-c3nc([C@H]4CC[C@H](C(=O)O)CC4)n4ncnc(N)c34)[nH]c12 [OSI-027] |  |  |  |  |  |  | 0.1 | -0.4 | -0.2 | -8.9 | 5.5 | -23.2 |  |  | 
UNC-AA-1-0013 (AAK1) | -0.2 | -0.2 | -0.3 | 3.7 | -11.6 | -4.0 |  |  |  |  |  |  |  |  | 
N#CC1(c2ccc(NC(=O)c3cccnc3NCc3ccncc3)cc2)CCCC1 [Apatinib] |  |  |  |  |  |  | -0.2 | -0.4 | -0.3 | -8.5 | -9.2 | -7.8 |  |  | 
COc1ccc(Cl)cc1NC(=O)Nc1cc(C)nc2ccccc12 [PQ 401] |  |  |  | -4.0 | 1.2 | -1.4 |  |  |  |  |  |  | 0.0 | -0.2 | -0.1
COc1cc2ncnc(Oc3cccc(NC(=O)Nc4cc(C(C)(C)C(F)(F)F)on4)c3)c2cc1OC [CEP-32496] |  |  |  |  |  |  | -0.4 | -0.2 | -0.3 | -3.7 | -2.2 | -5.2 |  |  | 
CC(C)NC[C@@H](C(=O)N1CCN(c2ncnc3c2[C@H](C)C[C@H]3O)CC1)c1ccc(Cl)cc1 [GDC-0068] |  |  |  |  |  |  | 0.4 | 0 | 0.2 | 0.3 | 6 | -5.5 |  |  | 
COc1ccc(Cl)c(Nc2nc3ccccc3nc2NS(=O)(=O)c2cccc(NC(=O)C(C)(C)N)c2)c1 [XL147] |  |  |  |  |  |  | -0.1 | 0.8 | 0.4 | -5 | -8.3 | -1.7 |  |  | 
O=C1Nc2ccc(I)cc2/C1=C/c1cc(Br)c(O)c(Br)c1 [GW5074] |  |  |  | -7.5 | -6.2 | -6.8 |  |  |  |  |  |  | 0.0 | -0.4 | -0.2
Cl.O=S(=O)(c1cccc2cnccc12)N1CCCNCC1 [Fasudil (HA-1077) HCl] |  |  |  | 6.9 | -10.2 | -1.7 |  |  |  |  |  |  | 0.9 | 0.6 | 0.7
Cc1nc(Nc2ncc(C(=O)Nc3c(C)cccc3Cl)s2)cc(N2CCN(CCO)CC2)n1 [Dasatinib] |  |  |  |  |  |  | -0.1 | -0.2 | -0.1 | -14.6 | 1.5 | -30.7 |  |  | 
CN(C)CCCn1cc(C2=C(c3c[nH]c4ccccc34)C(=O)NC2=O)c2ccccc21 [GF109203X] | 0.2 °C | 0.3 °C | 0.1 °C | -5.7 | -5.0 | -5.4 |  |  |  |  |  |  |  |  | 
O=C(NCCO)c1cccc(-c2cc(Nc3ccc(OC(F)(F)F)cc3)ncn2)c1 [GNF-5] | -0.3 | -0.2 | -0.3 | -7.9 | -2.3 | -5.1 |  |  |  |  |  |  |  |  | 
CCNc1nc(Nc2cc(F)c(C(=O)N3CCOCC3)cc2OC)ncc1C(F)(F)F [GNE-7915] |  |  |  |  |  |  | -0.1 | -0.5 | -0.3 | -3.7 | -10.5 | 3.1 |  |  | 
CN1CCCN(C(=O)c2cccc(-c3ccc(/C=C4/C(=O)Nc5ccc(Cl)cc54)o3)c2)CC1.Cl [CX-6258 HCl] |  |  |  | -0.5 | -26.8 | -13.6 |  |  |  |  |  |  | 0.1 | -0.4 | -0.1
Cc1cnc(NC(=O)Nc2cc(Br)c(C)cc2OC[C@@H]2CNCCO2)cn1 [LY2603618] |  |  |  |  |  |  | 0 | -0.4 | -0.2 | -11.8 | 7 | -30.5 |  |  | 
CCS(=O)(=O)c1cccc(-c2cc(C(=O)NC3CCN(C)CC3)c(C)c3[nH]c4ncc(C)cc4c23)c1 [TAK-901] |  |  |  |  |  |  | 1.5 | 1.1 | 1.3 | -5.9 | -2.7 | -9.1 |  |  | 
Nc1ncnc2c1c(-c1cnc3[nH]ccc3c1)nn2C1CCCC1 [PP121] |  |  |  | -0.4 | -14.8 | -7.6 |  |  |  |  |  |  | 0.9 | 0.7 | 0.8
O=C(NC1CCNCC1)c1[nH]ncc1NC(=O)c1c(Cl)cccc1Cl [AT7519] |  |  |  |  |  |  | 0.4 | 0.5 | 0.4 | -13.8 | 6.4 | -34 |  |  | 
O=C(O)c1ccc(-c2c[nH]c3ncc(-c4ccccc4)cc23)cc1C1CCCC1 [GSK650394] |  |  |  |  |  |  | -0.4 | -0.3 | -0.3 | -8.8 | -24.3 | 6.7 |  |  | 
COc1cccc(-c2cc(=O)c3ccccc3o2)c1N [PD98059] |  |  |  | -16.6 | -0.7 | -8.6 |  |  |  |  |  |  | 0.0 | -0.2 | -0.1
COc1cc(Nc2c(C#N)cnc3cc(OCCCN4CCN(C)CC4)c(OC)cc23)c(Cl)cc1Cl [Bosutinib (SKI-606)] |  |  |  | 7.7 | -36.0 | -14.2 |  |  |  |  |  |  | 0.5 | 0.6 | 0.5
CNC(=O)c1cccc(-c2ccc3c(N4CCOC[C@@H]4C)nc(N4CCOC[C@@H]4C)nc3n2)c1 [AZD2014] |  |  |  |  |  |  | 0.3 | -0.3 | 0 | -1.4 | 8.9 | -11.6 |  |  | 
Cc1ccc(NC(=O)c2cccc(N(C)C)c2)cc1NC(=O)c1ccc(O)cc1 [ZM 336372] |  |  |  | -4.5 | -6.5 | -5.5 |  |  |  |  |  |  | -0.1 | -0.5 | -0.3
